Data as given in DBAASP.
Converted amounts (≈) assume the structure as drawn.

Columns and labels:
Assay in all cases: ≥ marks a high value that may be exact or a test limit, other limits are often not marked, values filed in µg/mL are converted to µM
[1] = test system: Bacillus anthracis Sterne 34F2
[2] = test system: Bacillus subtilis ATCC 9372
[3] = test system: Burkholderia thailandensis
Bacillus megaterium Bm11 = test system: Bacillus megaterium Bm11
[4] = test system: Candida albicans ATCC 10231
[5] = test system: Escherichia coli ATCC 25922
[6] = test system: Staphylococcus aureus Cowan 1
Staphylococcus capitis 1 = test system: Staphylococcus capitis 1
[7] = test system: Yersinia pseudotuberculosis YPIII
Escherichia coli K-12 = test system: Escherichia coli K-12
[8] = test system: Staphylococcus aureus USA 300
[9] = test system: Bacillus subtilis ATCC 6633
[10] = test system: Candida albicans ATCC 90028
[11] = test system: Escherichia coli ATCC 8739
[12] = test system: Staphylococcus aureus ATCC 43300
[13] = test system: Staphylococcus aureus ATCC 6538
Bacillus subtilis 168 = test system: Bacillus subtilis 168
[14] = test system: Pseudomonas aeruginosa PAO1
Bacillus subtilis = test system: Bacillus subtilis
Enterobacter cloacae = test system: Enterobacter cloacae
Escherichia coli = test system: Escherichia coli
[15] = test system: Pseudomonas aeruginosa ATCC 27853
Pseudomonas aeruginosa = test system: Pseudomonas aeruginosa
[16] = test system: Salmonella enterica subsp. enterica serovar Typhi
[17] = test system: Staphylococcus aureus ATCC 25923
Staphylococcus aureus = test system: Staphylococcus aureus
Listeria innocua = test system: Listeria innocua
Micrococcus luteus A270 = test system: Micrococcus luteus A270
[18] = test system: Salmonella enterica subsp. enterica serovar Enteritidis
[19] = test system: Mycobacterium tuberculosis H37Rv
Streptococcus mutans = test system: Streptococcus mutans

With `CC(=O)N[C@@H](C)C(=O)N[C@@H](CCC(=O)O)C(=O)N[C@@H](CCCN=C(N)N)C(=O)N[C@H](C(=O)NCC(=O)N[C@@H](C)C(=O)NCC(=O)N[C@@H](C)C(=O)N1CCC[C@H]1C(=O)N[C@H](C(=O)N[C@@H](Cc1ccc(O)cc1)C(=O)N[C@@H](CC(C)C)C(N)=O)C(C)C)C(C)C` [AERVGAGAPVYL] the MIC [1] was ≥ 100 µM, the MIC [2] was ≥ 100 µM and the MIC [3] was ≥ 50 µM.

For `CC[C@H](C)[C@H](NC(=O)CNC(=O)[C@H](C)NC(=O)[C@H](CC(C)C)NC(=O)[C@@H](NC(=O)[C@H](CCCN=C(N)N)NC(=O)CNC(=O)[C@@H](NC(=O)[C@H](CC(C)C)NC(=O)[C@@H]1CCCN1C(=O)[C@H](CC(C)C)NC(=O)[C@@H](N)Cc1ccccc1)[C@@H](C)CC)C(C)C)C(=O)N[C@@H](CC(C)C)C(N)=O` [FLPLIGRVLAGIL], the MIC (Bacillus megaterium Bm11) was 2.5 µM (≈ 3.45 µg/mL), the MIC [4] was 2.5 µM (≈ 3.45 µg/mL) and the MIC [5] was > 40 µM. For the same compound, the MIC [6] was 2.5 µM (≈ 3.45 µg/mL), the MIC (Staphylococcus capitis 1) was 5 µM (≈ 6.9 µg/mL) and the MIC [7] was 20 µM (≈ 27.6 µg/mL).

In the case of `CC[C@H](C)[C@H](NC(=O)[C@H](CCCN=C(N)N)NC(=O)[C@H](CCC(N)=O)NC(=O)[C@@H](NC(=O)[C@@H](NC(=O)[C@H](CCCN=C(N)N)NC(=O)[C@H](CCCCN)NC(=O)[C@H](Cc1ccccc1)NC(=O)[C@H](CCC(=O)O)NC(=O)CN)[C@@H](C)CC)C(C)C)C(=O)N[C@@H](CCCCN)C(=O)N[C@@H](CC(=O)O)C(=O)N[C@@H](Cc1ccccc1)C(=O)N[C@@H](CC(C)C)C(=O)N[C@@H](CCCN=C(N)N)C(=O)N[C@@H](CC(N)=O)C(=O)N[C@@H](CC(C)C)C(=O)N[C@H](C(N)=O)C(C)C` [GEFKRIVQRIKDFLRNLV], the MIC (Escherichia coli K-12) is reported as ≥ 60 µM and the MIC [8] is reported as ≥ 60 µM.

`CC[C@H](C)[C@H](NC(=O)CN)C(=O)N[C@@H](Cc1ccccc1)C(=O)N[C@@H](CO)C(=O)N[C@H](C(=O)N[C@H](C(=O)N[C@@H](Cc1ccccc1)C(=O)N[C@@H](CCCCN)C(=O)N[C@@H](C)C(=O)NCC(=O)N[C@@H](CCCCN)C(=O)NCC(=O)N[C@H](C(=O)N[C@H](C(=O)N[C@H]1CSSC[C@@H](C(=O)O)NC(=O)[C@H](CC(C)C)NC(=O)CNC(=O)[C@H]([C@@H](C)O)NC(=O)[C@H](CC(C)C)NC(=O)CNC1=O)C(C)C)[C@@H](C)CC)C(C)C)[C@@H](C)O` [GIFSTVFKAGKGIVCGLTGLC] was tested, and the MIC [9] was 12.5 µM (≈ 25.9 µg/mL), the MIC [10] was ≥ 50 µM and the MIC [11] was 25 µM (≈ 51.7 µg/mL). For the same compound, the MIC [12] was 12.5 µM (≈ 25.9 µg/mL) and the MIC [13] was 3.1 µM (≈ 6.42 µg/mL).

`CC(C)C[C@H](NC(=O)[C@H](CC(C)C)NC(=O)[C@H](CCCCN)NC(=O)CNC(=O)[C@H](CC(C)C)NC(=O)[C@H](CC(C)C)NC(=O)[C@H](CO)NC(=O)[C@H](CC(C)C)NC(=O)[C@H](CC(C)C)NC(=O)[C@@H]1CCCN1C(=O)[C@H](CC(C)C)NC(=O)[C@H](CC(C)C)NC(=O)CN)C(N)=O` [GLLPLLSLLGKLL] was tested, and the MIC (Bacillus subtilis 168) was 3.12 µM (≈ 4.21 µg/mL), the MIC (Escherichia coli K-12) was 25 µM (≈ 33.7 µg/mL) and the MIC [14] was > 100 µM. For the same compound, the MIC [8] was 1.56 µM (≈ 2.1 µg/mL).

`CC(C)C[C@H](NC(=O)[C@H](CCCCN)NC(=O)[C@H](CCCN=C(N)N)NC(=O)[C@H](Cc1ccccc1)NC(=O)[C@H](Cc1ccccc1)NC(=O)[C@H](CCCCN)NC(=O)[C@H](CCCCN)NC(=O)[C@H](Cc1ccccc1)NC(=O)[C@H](CCCN=C(N)N)NC(=O)[C@H](CCCCN)NC(=O)[C@@H](NC(=O)[C@H](CC(C)C)NC(=O)[C@@H](N)CCCCN)C(C)C)C(=O)N[C@@H](CCCCN)C(=O)N[C@@H](CCCCN)C(=O)N[C@@H](CO)C(N)=O` [KLVKRFKKFFRKLKKS] was tested, and the MIC (Bacillus subtilis) was ≥ 61.5 µM, the MIC [10] was 30.7 µM (≈ 64 µg/mL) and the MIC (Enterobacter cloacae) was ≥ 123 µM. The MIC [5] was 30.7 µM (≈ 64 µg/mL), the MIC (Escherichia coli) was 15.4 µM (≈ 32 µg/mL) and the MIC [15] was 61.5 µM (≈ 128 µg/mL). For the same compound, the MIC (Pseudomonas aeruginosa) was 7.69 µM (≈ 16 µg/mL), the MIC [16] was 3.84 µM (≈ 8 µg/mL) and the MIC [17] was 0.961 µM (≈ 2 µg/mL). For the same compound, the MIC (Staphylococcus aureus) was 61.5 µM (≈ 128 µg/mL).

`CSCC[C@H](N)C(=O)N[C@@H](CC(C)C)C(=O)N[C@H](C(=O)N[C@@H](C)C(=O)N[C@@H](CCC(=O)O)C(=O)N[C@@H](CCC(=O)O)C(=O)N[C@@H](CCCCN)C(=O)N[C@@H](C)C(=O)N[C@@H](C)C(=O)N[C@H](C(=O)N[C@H](C(=O)N[C@@H](C)C(=O)N[C@@H](Cc1ccccc1)C(=O)O)[C@@H](C)O)C(C)C)[C@@H](C)O` [MLTAEEKAAVTAF] was tested, and the MIC (Escherichia coli) was 4 µM (≈ 5.53 µg/mL), the MIC (Listeria innocua) was 6 µM (≈ 8.29 µg/mL) and the MIC (Micrococcus luteus A270) was 4 µM (≈ 5.53 µg/mL). For the same compound, the MIC [18] was 6 µM (≈ 8.29 µg/mL).

For `C[C@H](NC(=O)[C@@H]1CCCN1C(=O)[C@H](CCC(=O)O)NC(=O)[C@H](CCC(N)=O)NC(=O)[C@H](CCCCN)NC(=O)[C@@H]1CCCN1C(=O)[C@H](C)NC(=O)[C@@H]1CCCN1C(=O)[C@H](CCCCN)NC(=O)[C@@H]1CCCN1C(=O)[C@H](CCCCN)NC(=O)[C@@H](NC(=O)[C@@H](NC(=O)[C@H](CCCN=C(N)N)NC(=O)[C@@H]1CCCN1C(=O)[C@H](CCCCN)NC(=O)[C@@H](N)CCCN=C(N)N)[C@@H](C)O)[C@@H](C)O)C(=O)N[C@H](C(=O)N[C@@H](CCC(=O)O)C(=O)N[C@@H](CCC(=O)O)C(=O)O)[C@@H](C)O` [RKPRTTKPKPAPKQEPATEE], the MIC [19] was ≥ 87.4 µM.

In the case of `NCCCC[C@H](NC(=O)[C@H](Cc1c[nH]c2ccccc12)NC(=O)[C@H](Cc1c[nH]c2ccccc12)NC(=O)[C@H](Cc1c[nH]c2ccccc12)NC(=O)[C@H](CCCN=C(N)N)NC(=O)[C@H](CCCN=C(N)N)NC(=O)[C@@H](N)CCCN=C(N)N)C(=O)O` [RRRWWWK], the MIC (Streptococcus mutans) is reported as ≥ 53.3 µM.

`CC[C@H](C)[C@H](NC(=O)[C@H](CCC(N)=O)NC(=O)[C@H](CCCCN)NC(=O)[C@@H](NC(=O)[C@H](CCC(=O)O)NC(=O)[C@H](CCC(N)=O)NC(=O)[C@H](CC(C)C)NC(=O)[C@@H](NC(=O)[C@@H](N)CCCN=C(N)N)C(C)C)[C@@H](C)CC)C(=O)N[C@@H](CC(C)C)C(=O)N[C@@H](CCCCN)C(=O)O` [RVLQEIKQILK] was tested, and the MIC (Streptococcus mutans) was ≥ 183 µM.

In the case of `CC(C)C[C@H](NC(=O)[C@H](CCC(=O)O)NC(=O)[C@@H](NC(=O)[C@H](CC(=O)O)NC(=O)[C@H](CCCCN)NC(=O)[C@H](CC(N)=O)NC(=O)[C@H](C)NC(=O)[C@H](CCCCN)NC(=O)[C@H](CCCCN)NC(=O)CNC(=O)[C@H](CCCCN)NC(=O)[C@@H](N)CO)C(C)C)C(=O)N[C@@H](C)C(=O)N[C@@H](CCCN=C(N)N)C(=O)NCC(=O)O` [SKGKKANKDVELARG], the MIC [1] is reported as ≥ 100 µM, the MIC [2] is reported as ≥ 100 µM and the MIC [3] is reported as ≥ 50 µM.
